Data: US6451618B2, “Test for detecting substances which alter the conformational structure of zinc fingers” (priority 1997, dated 2002)
Like-named read-outs stand apart in the source and are kept apart here.

Experiments:
TFIIIA [1] = target: T1, TFIIIA (Xenopus laevis, UniProt P03001); type: binding; parameters: Immature ovarian tissue was dissected from 4-5 cm female X. laevis frogs; from tissue; host or cells: immature ovarian tissue (oocytes) of Xenopus laevis; 7S particles, 5S RNA removed with RNase A; details: for concentration giving complete inhibition of TFIIIA binding: complete loss of DNase I protection and hypersensitivity; for TFIIIA zinc finger affected by xenobiotic: general statement; for concentration at which TFIIIA binding to the 5S RNA gene is inhibited: loss of DNase I protection, nucleotides +43 to +96, TFIIIA preincubated with metal; for reversibility of inhibition of TFIIIA binding: not overcome by added zinc ions; for inhibition of TFIIIA-5S RNA gene interaction: 10 μM, data not shown
Protocol: Inhibition of TFIIIA binding to the 5S ribosomal RNA gene was assayed by the DNase I protection method. In this assay, TFIIIA isolated from frogs, or as a recombinant protein, was incubated for a short period of time with a radioactively labeled double-stranded DNA fragment containing the 5S ribosomal RNA gene sequence (120 base-pairs in length). In TFIIIA's role in regulating ribosome synthesis, the protein birds specifically and tightly to this 5S gene sequence. When this occurs, the bound protein protects a large region of the 5S RNA gene from DNase I digestion. DNase I normally degrades the 5S gene and in the process generates a series of differently sized DNA fragments which can be resolved by electrophoresis. TFIIIA binding protects a DNA region comprising approximately 53 base pairs from DNase I degradation.
Cadmium and aluminum inhibition of TFIIIA binding was ascertained by observing the loss of this protected region from 5S gene nucleotides (+43 to +96).
The end-labeled fragment was ethanol precipitated, redigested with BamHI and the smaller fragment was purified by PAGE. Specific activity of the fragment was determined by absorbance at 260 nm and Cerenkov counting. To examine the effects of various metals on the TFIIIA-5S RNA gene interaction TFIIIA (10 nM) was incubated with the various metals (chloride salts of all metals were ultrapure grade and purchased from Aldrich; concentrations are indicated in the figure legends) in 20 mM Tris-HCl, pH 7.6, 70 mM NH4Cl, 7 mM MgCl2, 0.4 mM DTT and 0.1% NP-40 for 10 min prior to addition of the DNA fragment containing the end-labeled 5S RNA gene (1 nM). After addition of DNA the reaction (20 μl ) was incubated at room temperature for an additional 15 min. The reactions were then incubated for an additional 1 min in DNase I (2 μg/ml final concentration) and digestion was terminated by addition of 100 μl stop buffer (20 mM Tris-HCl, pH 7.6, 1 mM EDTA, 0.1% SDS, 30 μg/ml sonicated salmon sperm DNA). […] Gel autoradiography was performed overnight at −70° C. with Kodak XAR-5 film and a Dupont Cronex intensifying screen.
Target sequence in this assay (P03001 23-366): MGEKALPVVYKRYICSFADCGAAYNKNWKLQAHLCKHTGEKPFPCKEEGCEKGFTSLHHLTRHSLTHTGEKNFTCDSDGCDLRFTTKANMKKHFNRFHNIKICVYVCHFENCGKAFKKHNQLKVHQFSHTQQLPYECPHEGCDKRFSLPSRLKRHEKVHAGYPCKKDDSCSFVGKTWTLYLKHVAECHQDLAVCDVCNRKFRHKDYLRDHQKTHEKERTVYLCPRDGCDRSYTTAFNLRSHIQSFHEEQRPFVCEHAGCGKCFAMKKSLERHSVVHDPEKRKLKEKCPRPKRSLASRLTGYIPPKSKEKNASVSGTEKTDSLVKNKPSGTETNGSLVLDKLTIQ

TFIIIA [2] = target: T1, TFIIIA; assay: TFIIIA-dependent DNA renaturation assay; type: biochemical; parameters: Immature ovarian tissue was dissected from 4-5 cm female X. laevis frogs; from tissue; host or cells: immature ovarian tissue (oocytes) of Xenopus laevis; 7S particles, 5S RNA removed with RNase A
Target sequence in this assay (P03001 23-366): as above
Protocol: DNA migration in the Tris-phosphate agarose gel electrophoresis system used in the DNA renaturation assay is sensitive to some types of DNA structural changes. This assay is useful in this study because it can detect structural changes in the nanomolar DNA concentration range.
DNA renaturation (hybridization of complementary single-stranded DNA) was assayed by binding 20 nM Xenopus TFIIIA to 2 nM heat-denatured ^32P labeled 5S gene DNA for 15 min. Reactions are terminated by detergent and electrophoresed on an agarose gel which resolves the slower migrating single-stranded DNA (s.s.) from the faster migrating double-stranded DNA (d.s.) DNA bands are visualized by autoradiography. […] DNA migration in the absence and presence of cadmium.
TFIIIA isolation, ^32P-end-labeling of the 5S RNA gene, denaturation and renaturation reactions, Tris-phosphate agarose gel electrophoresis and autoradiography were performed as described above in the methodology section herein. […]

estrogen receptor (ER) [3] = details: hormone-bound estrogen receptor; cited from earlier work
estrogen receptor (ER) [4] = details: cited from earlier work
TFIIIA [5] = target: T1, TFIIIA; details: excitation 360 nanometers
Protocol: Zinc is then removed from TFIIIA (- ZINC sample) by incubation with the zinc chelator, ethylenediamine tetraacetic acid (EDTA). Relative emission fluorescent intensity spectra of the TFIIIA-bound AEDANS probe are recorded using an excitation wavelength of 360 nanometers.
Target sequence in this assay (P03001 23-366 limits assumed): as the sequence (P03001 23-366) above

[Cl][Cd][Cl] [Cd^2+, CdCl2]
in vitro inhibitory concentration relative to serum concentration in moderate to heavy smokers (TFIIIA [1]; 0.1 μM Cd2+ for TFIIIA): approximately 5 fold
inhibitory molecules of metal ion per TFIIIA molecule (TFIIIA [1]; at 0.1 μM Cd2+): < 10 molecules per TFIIIA molecule
concentration giving complete inhibition of TFIIIA binding (TFIIIA [1]): 0.25 µM
TFIIIA zinc finger affected by xenobiotic (TFIIIA [1]): affected
concentration at which TFIIIA binding to the 5S RNA gene is inhibited (TFIIIA [1]): 0.1 µM
reversibility of inhibition of TFIIIA binding (TFIIIA [1]): irreversible
inhibition of TFIIIA-dependent DNA renaturation (TFIIIA [2]; TFIIIA 10, 20 or 30 nM preincubated with 1 μM CdCl2): inhibition of DNA renaturation
concentration inhibiting DNA binding by activated receptors (estrogen receptor (ER) [3]): 1 mM
concentration inhibiting initial binding of hormone to receptor (estrogen receptor (ER) [4]): 0.1 mM

[AsH3] [Arsenic, NaH2AsO4]
inhibition of TFIIIA zinc finger binding to DNA (TFIIIA [1]; preincubated with 0.1, 0.5 or 1.0 mM NaH2AsO4): does not inhibit

O=[Se]([O-])[O-].[Na+].[Na+] [Na2SeO3]
TFIIIA zinc finger affected by xenobiotic (TFIIIA [1]): affected
concentration at which TFIIIA binding to the 5S RNA gene is inhibited (TFIIIA [1]): ≥ 25 µM

HgCl2 [Mercury]
TFIIIA zinc finger affected by xenobiotic (TFIIIA [1]): not
inhibition of TFIIIA zinc finger binding to DNA (TFIIIA [1]; preincubated in 5, 10, 15, 20 μM HgCl2): does not inhibit

[Cl-].[Cl-].[Mg+2] [Mg^2+]
inhibition of TFIIIA-5S RNA gene interaction (TFIIIA [1]): non-inhibitory

[Cl][Mn][Cl] [Mn^2+]
inhibition of TFIIIA-5S RNA gene interaction (TFIIIA [1]): non-inhibitory
TFIIIA zinc finger affected by xenobiotic (TFIIIA [1]): not

[Cl][Al]([Cl])[Cl] [Al^3+, AlCl3]
inhibitory concentration relative to that for Cd2+ (TFIIIA [1]; Al3+ versus Cd2+): about 50 fold
concentration giving slight inhibition of TFIIIA binding (TFIIIA [1]; FIG. lane 3): 1 µM
concentration giving complete inhibition of TFIIIA binding (TFIIIA [1]): 5 to 7 µM
TFIIIA zinc finger affected by xenobiotic (TFIIIA [1]): affected
concentration at which TFIIIA binding to the 5S RNA gene is inhibited (TFIIIA [1]): 3 µM
reversibility of inhibition of TFIIIA binding (TFIIIA [1]): irreversible
inhibition of TFIIIA-dependent DNA renaturation (TFIIIA [2]; TFIIIA preincubated with 50 μM AlCl3 (panel B)): Inhibition of TFIIIA-dependent renaturation

[Cl-].[Cs+] [Cs^2+]
inhibition of TFIIIA-5S RNA gene interaction (TFIIIA [1]): non-inhibitory
TFIIIA zinc finger affected by xenobiotic (TFIIIA [1]): not

[Cl][Pb][Cl] [PbCl2]
TFIIIA zinc finger affected by xenobiotic (TFIIIA [1]): affected
concentration at which TFIIIA binding to the 5S RNA gene is inhibited (TFIIIA [1]): ≥ 10 µM

O=C(O)CN(CCN(CC(=O)O)CC(=O)O)CC(=O)O [EDTA, ethylenediamine tetraacetic acid]
emission wavelength after zinc removal (TFIIIA [5]; blue shift from 485 nanometers): 478 nanometers
increase of emission fluorescence intensity (TFIIIA [5]; zinc removed from TFIIIA by EDTA): 25%
